Measurements: publication PMC10178848, “Modulating fast skeletal muscle contraction protects skeletal muscle in animal models of Duchenne muscular dystrophy” (The Journal of Clinical Investigation, 2023)
Like-named read-outs stand apart in the source and are kept apart here.

Key:
[1] = biological target: T1, MAP3K4 (Homo sapiens, UniProt Q9Y6R4); assay: KINOMEscan scanEDGE; assay type: binding; settings: 20 uM
T1 construct: purchased Eurofins DiscoverX (KINOMEscan; SAFETYscan E/IC50 ELECT)

[2] = biological target: T2, JAK3(JH1domain-catalytic) (Homo sapiens, UniProt P52333); assay: KINOMEscan scanEDGE; assay type: binding; settings: 20 uM
T2 construct: JAK3(JH1domain-catalytic); purchased Eurofins DiscoverX (KINOMEscan; SAFETYscan E/IC50 ELECT)
T2 sequence (P52333 811-1124 limits assumed): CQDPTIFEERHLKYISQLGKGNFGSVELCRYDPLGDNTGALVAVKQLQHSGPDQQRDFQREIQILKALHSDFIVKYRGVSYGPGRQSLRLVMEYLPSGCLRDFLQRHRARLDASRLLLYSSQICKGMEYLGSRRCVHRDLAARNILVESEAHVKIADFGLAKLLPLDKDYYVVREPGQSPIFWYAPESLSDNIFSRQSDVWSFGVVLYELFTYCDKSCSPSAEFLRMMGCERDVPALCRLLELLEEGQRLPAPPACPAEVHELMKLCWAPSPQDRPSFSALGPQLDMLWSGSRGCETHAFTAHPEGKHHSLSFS

[3] = biological target: T3, HRH1 (Homo sapiens, UniProt P35367); assay: SAFETYscan Calcium Flux; assay type: cell-based; set-up: dose or concentration left out as unconfirmed
T3 construct: purchased Eurofins DiscoverX (KINOMEscan; SAFETYscan E/IC50 ELECT)
T3 sequence (P35367 whole entry): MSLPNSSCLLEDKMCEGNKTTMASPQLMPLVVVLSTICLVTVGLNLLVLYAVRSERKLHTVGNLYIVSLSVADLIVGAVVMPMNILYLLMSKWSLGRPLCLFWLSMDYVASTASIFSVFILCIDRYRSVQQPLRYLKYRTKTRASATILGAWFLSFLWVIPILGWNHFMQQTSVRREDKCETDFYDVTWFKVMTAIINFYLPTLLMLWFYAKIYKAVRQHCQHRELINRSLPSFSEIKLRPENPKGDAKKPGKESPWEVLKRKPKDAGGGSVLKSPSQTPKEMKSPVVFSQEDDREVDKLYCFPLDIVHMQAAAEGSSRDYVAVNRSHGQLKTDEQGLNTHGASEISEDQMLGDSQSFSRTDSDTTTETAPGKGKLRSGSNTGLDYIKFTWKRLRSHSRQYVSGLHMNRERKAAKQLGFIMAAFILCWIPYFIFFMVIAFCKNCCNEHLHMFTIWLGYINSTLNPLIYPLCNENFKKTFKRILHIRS
Protocol: (§1) The specificity of EDG-5506 for fast skeletal myosin over other, unrelated proteins was confirmed using two off-target binding and activity screens. […] A second off-target panel (SAFETYscan E/IC50 ELECT, Eurofins DiscoverX) tested in vitro enzyme activity against 78 proteins, including GPCR, ion channel, kinases, nuclear hormone receptors, and transporters. In all assays, the IC50 of EDG-5506 was more than 10 μM (Supplemental Data File 1).

[4] = biological target: T4, ADRA1A (Homo sapiens, UniProt P35348); assay: SAFETYscan Calcium Flux; assay type: cell-based; set-up: dose or concentration left out as unconfirmed
T4 construct: purchased Eurofins DiscoverX (KINOMEscan; SAFETYscan E/IC50 ELECT)
T4 sequence (P35348 whole entry): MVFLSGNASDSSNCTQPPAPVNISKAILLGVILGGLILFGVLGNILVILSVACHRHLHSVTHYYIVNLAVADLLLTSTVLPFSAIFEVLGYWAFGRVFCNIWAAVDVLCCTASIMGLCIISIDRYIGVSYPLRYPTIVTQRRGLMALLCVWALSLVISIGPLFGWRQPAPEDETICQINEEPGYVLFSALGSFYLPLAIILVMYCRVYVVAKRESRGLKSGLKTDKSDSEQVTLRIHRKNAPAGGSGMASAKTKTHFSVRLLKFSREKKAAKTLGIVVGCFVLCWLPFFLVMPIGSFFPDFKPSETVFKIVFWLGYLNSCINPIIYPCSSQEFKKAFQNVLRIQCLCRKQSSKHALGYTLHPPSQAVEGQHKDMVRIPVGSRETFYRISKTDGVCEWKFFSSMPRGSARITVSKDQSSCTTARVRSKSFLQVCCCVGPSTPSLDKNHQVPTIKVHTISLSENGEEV
Protocol: as §1

[5] = biological target: T5, CHRM3 (Homo sapiens, UniProt P20309); assay: SAFETYscan Calcium Flux; assay type: cell-based; set-up: dose or concentration left out as unconfirmed
T5 construct: purchased Eurofins DiscoverX (KINOMEscan; SAFETYscan E/IC50 ELECT)
T5 sequence (P20309 whole entry): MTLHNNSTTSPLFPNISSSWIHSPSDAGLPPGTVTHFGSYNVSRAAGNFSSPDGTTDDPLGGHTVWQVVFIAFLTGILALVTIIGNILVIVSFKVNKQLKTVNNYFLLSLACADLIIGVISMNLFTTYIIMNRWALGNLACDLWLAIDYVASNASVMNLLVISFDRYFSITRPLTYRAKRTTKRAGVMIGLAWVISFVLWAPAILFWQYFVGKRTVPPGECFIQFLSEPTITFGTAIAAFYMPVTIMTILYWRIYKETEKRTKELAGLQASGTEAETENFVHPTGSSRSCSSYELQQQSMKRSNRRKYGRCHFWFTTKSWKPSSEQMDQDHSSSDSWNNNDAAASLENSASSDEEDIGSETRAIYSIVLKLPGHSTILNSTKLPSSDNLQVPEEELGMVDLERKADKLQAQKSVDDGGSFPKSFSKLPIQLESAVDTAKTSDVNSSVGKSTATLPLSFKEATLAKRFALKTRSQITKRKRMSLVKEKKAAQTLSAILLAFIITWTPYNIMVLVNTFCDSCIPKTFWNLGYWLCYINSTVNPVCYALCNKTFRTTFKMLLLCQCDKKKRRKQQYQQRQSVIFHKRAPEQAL
Protocol: as §1

[6] = biological target: T6, HTR2A (Homo sapiens, UniProt P28223); assay: SAFETYscan Calcium Flux; assay type: cell-based; set-up: dose or concentration left out as unconfirmed
T6 construct: purchased Eurofins DiscoverX (KINOMEscan; SAFETYscan E/IC50 ELECT)
T6 sequence (P28223 whole entry): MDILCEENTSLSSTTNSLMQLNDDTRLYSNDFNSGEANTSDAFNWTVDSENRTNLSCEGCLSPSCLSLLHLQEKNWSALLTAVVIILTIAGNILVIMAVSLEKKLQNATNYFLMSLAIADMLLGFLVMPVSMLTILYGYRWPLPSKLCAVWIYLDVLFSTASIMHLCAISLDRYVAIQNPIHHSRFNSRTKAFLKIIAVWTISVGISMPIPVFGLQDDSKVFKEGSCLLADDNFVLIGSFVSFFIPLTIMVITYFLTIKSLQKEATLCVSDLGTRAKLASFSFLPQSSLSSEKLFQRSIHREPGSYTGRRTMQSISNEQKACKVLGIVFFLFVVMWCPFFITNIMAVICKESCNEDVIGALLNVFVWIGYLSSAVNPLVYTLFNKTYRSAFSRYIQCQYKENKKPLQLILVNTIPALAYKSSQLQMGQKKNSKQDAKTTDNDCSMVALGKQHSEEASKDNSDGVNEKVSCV
Protocol: as §1

[7] = biological target: T7, AVPR1A (Homo sapiens, UniProt P37288); assay: SAFETYscan Calcium Flux; assay type: cell-based; set-up: dose or concentration left out as unconfirmed
T7 construct: purchased Eurofins DiscoverX (KINOMEscan; SAFETYscan E/IC50 ELECT)
T7 sequence (P37288 whole entry): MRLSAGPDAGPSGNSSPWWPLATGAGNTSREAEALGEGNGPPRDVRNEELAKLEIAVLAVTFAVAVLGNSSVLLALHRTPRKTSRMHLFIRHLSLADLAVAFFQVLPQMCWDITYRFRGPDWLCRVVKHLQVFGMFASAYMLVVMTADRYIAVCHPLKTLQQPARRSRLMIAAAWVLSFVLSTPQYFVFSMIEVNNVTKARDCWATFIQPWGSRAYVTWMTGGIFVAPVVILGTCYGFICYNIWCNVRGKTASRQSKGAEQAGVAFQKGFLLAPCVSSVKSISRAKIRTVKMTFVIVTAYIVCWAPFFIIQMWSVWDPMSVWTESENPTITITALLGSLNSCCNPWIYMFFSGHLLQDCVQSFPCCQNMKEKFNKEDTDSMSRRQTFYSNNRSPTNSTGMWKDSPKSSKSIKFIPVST
Protocol: as §1

[8] = biological target: T8, HTR2B (Homo sapiens, UniProt P41595); assay: SAFETYscan Calcium Flux; assay type: cell-based; set-up: dose or concentration left out as unconfirmed
T8 construct: purchased Eurofins DiscoverX (KINOMEscan; SAFETYscan E/IC50 ELECT)
T8 sequence (P41595 whole entry): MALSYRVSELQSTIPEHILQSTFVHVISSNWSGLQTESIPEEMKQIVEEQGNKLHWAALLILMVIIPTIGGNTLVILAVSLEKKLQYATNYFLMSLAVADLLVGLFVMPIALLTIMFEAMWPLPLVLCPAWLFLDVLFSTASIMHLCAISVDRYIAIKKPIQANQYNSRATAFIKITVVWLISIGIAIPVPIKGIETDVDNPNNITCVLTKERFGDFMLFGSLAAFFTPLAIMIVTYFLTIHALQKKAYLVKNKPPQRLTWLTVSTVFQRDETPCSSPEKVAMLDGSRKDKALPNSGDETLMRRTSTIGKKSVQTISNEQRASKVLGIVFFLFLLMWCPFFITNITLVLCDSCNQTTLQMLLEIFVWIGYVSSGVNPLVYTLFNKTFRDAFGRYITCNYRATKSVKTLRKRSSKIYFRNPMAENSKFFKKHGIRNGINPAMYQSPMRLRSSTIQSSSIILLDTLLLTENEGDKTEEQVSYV
Protocol: as §1

[9] = biological target: T9, CHRM1 (Homo sapiens, UniProt P11229); assay: SAFETYscan Calcium Flux; assay type: cell-based; set-up: dose or concentration left out as unconfirmed
T9 construct: purchased Eurofins DiscoverX (KINOMEscan; SAFETYscan E/IC50 ELECT)
T9 sequence (P11229 whole entry): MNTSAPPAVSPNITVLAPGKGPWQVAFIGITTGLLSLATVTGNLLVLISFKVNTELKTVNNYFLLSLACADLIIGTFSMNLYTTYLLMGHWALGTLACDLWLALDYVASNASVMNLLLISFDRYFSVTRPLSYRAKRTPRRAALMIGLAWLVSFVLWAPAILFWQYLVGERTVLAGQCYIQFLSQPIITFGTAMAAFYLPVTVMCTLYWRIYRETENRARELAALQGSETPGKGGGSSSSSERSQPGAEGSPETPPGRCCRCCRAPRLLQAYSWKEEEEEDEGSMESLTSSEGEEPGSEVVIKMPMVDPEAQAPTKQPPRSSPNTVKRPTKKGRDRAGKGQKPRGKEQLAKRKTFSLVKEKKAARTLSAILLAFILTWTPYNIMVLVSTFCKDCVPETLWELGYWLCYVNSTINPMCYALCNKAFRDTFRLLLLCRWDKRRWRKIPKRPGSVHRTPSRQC
Protocol: as §1

[10] = biological target: T10, ADORA2A (Homo sapiens, UniProt P29274); assay: SAFETYscan Calcium Flux; assay type: cell-based; set-up: dose or concentration left out as unconfirmed
T10 construct: purchased Eurofins DiscoverX (KINOMEscan; SAFETYscan E/IC50 ELECT)
T10 sequence (P29274 whole entry): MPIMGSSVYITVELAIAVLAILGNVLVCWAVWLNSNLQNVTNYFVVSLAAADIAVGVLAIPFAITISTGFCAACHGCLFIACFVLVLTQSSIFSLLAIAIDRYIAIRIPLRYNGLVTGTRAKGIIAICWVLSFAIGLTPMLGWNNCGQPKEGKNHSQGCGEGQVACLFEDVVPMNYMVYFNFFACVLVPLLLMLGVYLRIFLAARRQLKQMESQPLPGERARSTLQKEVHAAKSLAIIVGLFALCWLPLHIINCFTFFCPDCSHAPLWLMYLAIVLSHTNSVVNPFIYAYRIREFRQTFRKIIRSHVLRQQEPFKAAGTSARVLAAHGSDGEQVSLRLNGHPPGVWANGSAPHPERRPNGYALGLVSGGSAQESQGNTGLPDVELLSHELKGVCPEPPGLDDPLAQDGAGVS
Protocol: as §1

[11] = biological target: T11, EDNRA (Homo sapiens, UniProt P25101); assay: SAFETYscan Calcium Flux; assay type: cell-based; set-up: dose or concentration left out as unconfirmed
T11 construct: purchased Eurofins DiscoverX (KINOMEscan; SAFETYscan E/IC50 ELECT)
T11 sequence (P25101 21-427): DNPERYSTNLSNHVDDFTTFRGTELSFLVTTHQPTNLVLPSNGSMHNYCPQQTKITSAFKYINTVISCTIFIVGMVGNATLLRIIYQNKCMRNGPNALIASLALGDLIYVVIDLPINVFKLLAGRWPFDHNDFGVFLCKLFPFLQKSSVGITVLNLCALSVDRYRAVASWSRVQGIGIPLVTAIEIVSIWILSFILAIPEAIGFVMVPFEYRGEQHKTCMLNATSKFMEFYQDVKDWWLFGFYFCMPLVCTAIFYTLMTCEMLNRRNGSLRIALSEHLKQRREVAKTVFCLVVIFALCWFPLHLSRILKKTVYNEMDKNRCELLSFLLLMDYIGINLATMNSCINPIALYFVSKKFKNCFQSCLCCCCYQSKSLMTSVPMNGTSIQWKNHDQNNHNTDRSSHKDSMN
Protocol: as §1

[12] = biological target: T12, CCKAR (Homo sapiens, UniProt P32238); assay: SAFETYscan Calcium Flux; assay type: cell-based; set-up: dose or concentration left out as unconfirmed
T12 construct: purchased Eurofins DiscoverX (KINOMEscan; SAFETYscan E/IC50 ELECT)
T12 sequence (P32238 whole entry): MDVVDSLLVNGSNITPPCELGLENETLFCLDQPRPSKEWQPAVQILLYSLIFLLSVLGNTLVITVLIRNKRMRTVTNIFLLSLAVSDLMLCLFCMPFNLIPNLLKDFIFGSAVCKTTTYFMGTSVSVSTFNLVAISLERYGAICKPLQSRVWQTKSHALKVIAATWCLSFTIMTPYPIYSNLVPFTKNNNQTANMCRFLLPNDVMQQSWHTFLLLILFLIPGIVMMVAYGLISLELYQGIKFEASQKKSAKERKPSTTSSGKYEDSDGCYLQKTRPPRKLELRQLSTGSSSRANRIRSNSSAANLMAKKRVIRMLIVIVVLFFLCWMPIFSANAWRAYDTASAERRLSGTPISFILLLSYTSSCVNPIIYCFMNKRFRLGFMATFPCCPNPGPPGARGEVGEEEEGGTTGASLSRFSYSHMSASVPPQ
Protocol: as §1

[13] = tested on: dystrophic golden retriever (GRMD) dogs; assay: Habitual activity in GRMD dogs (FitBark); assay type: in vivo, dog; settings: 2 mg/kg daily for 4 days, then every other day
Protocol: Studies were performed in two phases. In the first phase, GRMD (n = 4, female, 7 months old) were dosed PO daily with vehicle for 2 weeks, followed by a suspension of EDG-5506 (3 mg/kg daily for 2 days, then 1 mg/kg daily for 2 weeks) and then with vehicle for 2 weeks. Blood was drawn at regular intervals (2–3 draws during the vehicle baseline, 5–8 draws during the dosing period, and 2 draws during the vehicle washout). In a separate dosing period, the same 4 dogs (10 months old) were administered vehicle for 14 days with regular blood draws (6–9 for each dog across the 14-day period). CK activity (Pointe Scientific, Thermo Fisher Scientific) was measured from plasma. In the second phase, the same 4 dogs (15 months old) were fitted with a collar-bound activity monitor (Fitbark 2, Fitbark Inc.) as described previously ([42]), and baseline activity was recorded for 27 days before daily oral gavage with vehicle for 22 days. Three dogs were then dosed in a similar pattern to phase 1 with EDG-5506 (2 mg/kg for 4 days and then 2 mg/kg every other day for 7 days). The fourth dog was dosed with vehicle over the same period. Dogs were then returned to vehicle for a further 12 days. Average daily activity (“Fitbark points”) and time performing various activities (play, rest, active) were recorded.

[14] = biological target: T13, ABL1-phosphorylated (Homo sapiens, UniProt P00519); assay: KINOMEscan scanEDGE; assay type: binding; settings: 20 uM
T13 construct: purchased Eurofins DiscoverX (KINOMEscan; SAFETYscan E/IC50 ELECT)

[15] = biological target: T14, COX2 (Homo sapiens, UniProt P35354); assay: SAFETYscan Enzymatic; assay type: biochemical; set-up: dose or concentration left out as unconfirmed; settings: read-out: Max Response (%) (Antagonist)
T14 construct: purchased Eurofins DiscoverX (KINOMEscan; SAFETYscan E/IC50 ELECT)
Protocol: as §1

[16] = biological target: T15, PDE3A (Homo sapiens, UniProt Q14432); assay: SAFETYscan Enzymatic; assay type: biochemical; set-up: dose or concentration left out as unconfirmed; settings: read-out: Max Response (%) (Antagonist)
T15 construct: purchased Eurofins DiscoverX (KINOMEscan; SAFETYscan E/IC50 ELECT)
Protocol: as §1

[17] = biological target: T16, MAOA (Homo sapiens, UniProt P21397); assay: SAFETYscan Enzymatic; assay type: biochemical; set-up: dose or concentration left out as unconfirmed; settings: read-out: Max Response (%) (Antagonist)
T16 construct: purchased Eurofins DiscoverX (KINOMEscan; SAFETYscan E/IC50 ELECT)
Protocol: as §1

[18] = biological target: T17, AChE (Homo sapiens, UniProt P22303); assay: SAFETYscan Enzymatic; assay type: biochemical; set-up: dose or concentration left out as unconfirmed; settings: read-out: Max Response (%) (Antagonist)
T17 construct: purchased Eurofins DiscoverX (KINOMEscan; SAFETYscan E/IC50 ELECT)
Protocol: as §1

[19] = biological target: T18, PDE4D2 (Homo sapiens, UniProt Q08499); assay: SAFETYscan Enzymatic; assay type: biochemical; set-up: dose or concentration left out as unconfirmed; settings: read-out: Max Response (%) (Antagonist)
T18 construct: purchased Eurofins DiscoverX (KINOMEscan; SAFETYscan E/IC50 ELECT)
Protocol: as §1

[20] = biological target: T19, COX1 (Homo sapiens, UniProt P23219); assay: SAFETYscan Enzymatic; assay type: biochemical; set-up: dose or concentration left out as unconfirmed; settings: read-out: Max Response (%) (Antagonist)
T19 construct: purchased Eurofins DiscoverX (KINOMEscan; SAFETYscan E/IC50 ELECT)
Protocol: as §1

[21] = biological target: T20, TIE2 (Homo sapiens, UniProt Q02763); assay: KINOMEscan scanEDGE; assay type: binding; settings: 20 uM
T20 construct: purchased Eurofins DiscoverX (KINOMEscan; SAFETYscan E/IC50 ELECT)

[22] = biological target: T21, CDK11 (Homo sapiens, UniProt Q9BWU1); assay: KINOMEscan scanEDGE; assay type: binding; settings: 20 uM
T21 construct: purchased Eurofins DiscoverX (KINOMEscan; SAFETYscan E/IC50 ELECT)

[23] = tested on: rat cardiac muscle fibers; assay: Skinned fiber force, rat cardiac trabeculae; set-up: dose or concentration left out as unconfirmed; settings: rat cardiac trabecular strips
Protocol: Measurement of isometric force in skinned fibers from rabbit psoas, rat soleus, and rat cardiac trabeculae were performed as described previously ([65]) with an 802D fiber system (Aurora Scientific). Muscle bundles were thawed from –80°C and placed in relaxing solution. Single fibers were transferred to the testing apparatus with steel pins connected to a force transducer and motor (model 403A and 322C, Aurora Scientific), and collodion glue was applied. Temperature was set to 15°C for skeletal fibers and 30°C for rat cardiac trabeculae. The wells of the 802D were filled with different ratios of relaxing and activating pCa solutions as detailed previously ([65]). All control solutions contained 1% final DMSO. Traces were compared between control and compound runs to evaluate isometric force and calcium sensitivity.

[24] = read-out: Max Response (%) (Agonist)
[25] = read-out: Max Response (%) (Antagonist)

In the case of O=c1ccc(-c2cnc(OCC(F)(F)F)nc2)nn1Cc1cncc(F)c1 [EDG-5506], the “binding, % of control” value [1] is reported as 90 % of control, the “binding, % of control” value [2] is reported as 100 % of control and the Emax [3, 24] is reported as 0%. It also gave an Emax [3, 25] of 25.2%, an Emax [4, 24] of 2.19% and an Emax [4, 25] of 18.5%. It also gave an Emax [5, 24] of 2.48%, an Emax [5, 25] of 2.14% and an Emax [6, 24] of 3.31%. For the same compound, the Emax [6, 25] was 0.4%, the Emax [7, 24] was 0% and the Emax [7, 25] was 0%. It also gave an Emax [8, 24] of 5.88%, an Emax [8, 25] of 2.49% and an Emax [9, 24] of 0.16%. It also gave an Emax [9, 25] of 0%, an Emax [10, 24] of 0% and an Emax [10, 25] of 0%. For the same compound, the Emax [11, 24] was 0%, the Emax [11, 25] was 0% and the Emax [12, 24] was 1.03%. For the same compound, the Emax [12, 25] was 5.54%, the “improvement of average daily activity” value [13] was “more than 30%” and the “binding, % of control” value [14] was 72 % of control. For the same compound, the Emax [15] was 3.26%, the Emax [16] was 0.91% and the Emax [17] was 7.79%. For the same compound, the Emax [18] was 16.4%, the Emax [19] was 7.16% and the Emax [20] was 4.78%. For the same compound, the “binding, % of control” value [21] was 95 % of control, the “binding, % of control” value [22] was 95 % of control and the “effect on force, cardiac muscle fibers” value [23] was “no effect”.
